Experiment [1] relates to Bacillus spizizenii. Briefly: Antibacterial activity against Bacillus subtilis ATCC 6633 assessed as growth inhibition at 100 uM after 24 hrs by turbidimetric analysis. In kind it is functional. Conditions: for inhibition of growth at 100 µM: ATCC 6633, 24 h, read-out: GI.
The test system of experiment [2] is Staphylococcus aureus. Briefly: Antibacterial activity against Staphylococcus aureus ATCC 25923 assessed as growth inhibition at 100 uM after 24 hrs by turbidimetric analysis. The class given is functional. The conditions noted are these: for inhibition of growth at 100 µM: ATCC 25923, 24 h, read-out: GI.
Experiment [3] deals with Bacillus spizizenii. Briefly: Antibacterial activity against Bacillus subtilis ATCC 6633 assessed as growth inhibition after 24 hrs by turbidimetric analysis. In kind it is functional. Conditions: ATCC 6633, 24 h.
Experiment [4] concerns Streptomyces scabiei. Briefly: Antibacterial activity against Streptomyces scabiei CGMCC4.7610246 assessed as growth inhibition after 36 hrs by turbidimetric analysis. In kind it is functional. The conditions noted are these: CGMCC4.7610246, 36 h.
The test system of experiment [5] is Staphylococcus aureus. Briefly: Antibacterial activity against Staphylococcus aureus ATCC 25923 assessed as growth inhibition after 24 hrs by turbidimetric analysis. The class given is functional. The conditions noted are these: ATCC 25923, 24 h.
Experiment [6] relates to Streptomyces scabiei. Briefly: Antibacterial activity against Streptomyces scabiei CGMCC4.7610246 assessed as growth inhibition at 100 uM after 36 hrs by turbidimetric analysis. In kind it is functional, organism-based.

Values after ≈ are worked out from the molar mass of the structure shown. Active and inactive are the calls of the source. The calls are words filed in the database; no cut-off is given here.

`CCCCCCCCCCCCCCCOC(=O)[C@]12CCC(C)(C)C[C@H]1C1=CC[C@@H]3[C@@]4(C)[C@@H](O)[C@H](O)[C@H](O)C(C)(C)[C@@H]4CC[C@@]3(C)[C@]1(C)CC2`: the “growth inhibition (GI)” value with Bacillus spizizenii [1] and in the experiment on Staphylococcus aureus [2] was “Active” throughout.

As to `CC(C)OC(=O)[C@]12CCC(C)(C)C[C@H]1C1=CC[C@@H]3[C@@]4(C)[C@@H](O)[C@H](O)[C@H](O)C(C)(C)[C@@H]4CC[C@@]3(C)[C@]1(C)CC2`, the inhibition of growth at 100 µM in the experiment with Bacillus spizizenii [1] and in the experiment on Staphylococcus aureus [2] was more than 95% each time. Besides, the MIC is 64 µM (≈ 34 µg/mL) in the experiment with Bacillus spizizenii [3], not below 100 µM in the experiment on Streptomyces scabiei [4] and 8 µM (≈ 4.25 µg/mL) in the experiment on Staphylococcus aureus [5].

Consider `CC1(C)CC[C@]2(C(=O)OCc3ccccc3[N+](=O)[O-])CC[C@]3(C)C(=CC[C@@H]4[C@@]5(C)[C@@H](O)[C@H](O)[C@H](O)C(C)(C)[C@@H]5CC[C@]43C)[C@@H]2C1`, for which the “growth inhibition (GI)” value with Bacillus spizizenii [1] and with Staphylococcus aureus [2] was “Active” in each case. Moreover, the “growth inhibition (GI)” value in the experiment with Streptomyces scabiei [6] was “inactive”.

`CC1(C)CC[C@]2(C(=O)OCc3ccccc3Cl)CC[C@]3(C)C(=CC[C@@H]4[C@@]5(C)[C@@H](O)[C@H](O)[C@H](O)C(C)(C)[C@@H]5CC[C@]43C)[C@@H]2C1`: the “growth inhibition (GI)” value in the experiment with Bacillus spizizenii [1] and in the experiment with Staphylococcus aureus [2] was “Active” in each case. For the same compound, the “growth inhibition (GI)” value in the experiment on Streptomyces scabiei [6] is “inactive”.

In the case of `C[C@H]1[C@H](C)CC[C@]2(C(=O)OCc3ccc(Cl)cc3)CC[C@]3(C)C(=CC[C@@H]4[C@@]5(C)[C@@H](O)[C@H](O)[C@H](O)C(C)(C)[C@@H]5CC[C@]43C)[C@H]12`, the “growth inhibition (GI)” value with Bacillus spizizenii [1] and with Staphylococcus aureus [2] was “Active” throughout. Besides, the “growth inhibition (GI)” value in the experiment with Streptomyces scabiei [6] was “inactive”.

Take `C[C@H]1[C@H](C)CC[C@]2(C(=O)OCc3ccccc3)CC[C@]3(C)C(=CC[C@@H]4[C@@]5(C)C=CC(=O)C(C)(C)[C@@H]5CC[C@]43C)[C@H]12`: the “growth inhibition (GI)” value with Bacillus spizizenii [1], in the experiment on Streptomyces scabiei [6] and with Staphylococcus aureus [2] was “Active” throughout.

With `CC1(C)CC[C@]2(C(=O)O)CC[C@]3(C)C(=CC[C@@H]4[C@@]5(C)[C@H]6O[C@H]6C(=O)C(C)(C)[C@@H]5CC[C@]43C)[C@@H]2C1`, the “growth inhibition (GI)” value in the experiment on Bacillus spizizenii [1] and in the experiment with Streptomyces scabiei [6] was “Active” throughout.

For `CN[C@@H]1[C@H](O[C@H]2[C@H](O[C@H]3[C@H](O)[C@@H](O)[C@H](N=C(N)N)[C@@H](O)[C@@H]3N=C(N)N)O[C@@H](C)[C@]2(O)C=O)O[C@@H](CO)[C@H](O)[C@H]1O` [STREPTOMYCIN], the MIC in the experiment with Bacillus spizizenii [3] was 2 µM (≈ 1.16 µg/mL); in the experiment on Streptomyces scabiei [4], 4 µM (≈ 2.33 µg/mL); in the experiment with Staphylococcus aureus [5], not below 100 µM.

Consider `CC1(C)CC[C@]2(C(=O)OCc3ccc([N+](=O)[O-])cc3)CC[C@]3(C)C(=CC[C@@H]4[C@@]5(C)[C@@H](O)[C@H](O)[C@H](O)C(C)(C)[C@@H]5CC[C@]43C)[C@@H]2C1`, for which the “growth inhibition (GI)” value in the experiment on Bacillus spizizenii [1] and in the experiment on Staphylococcus aureus [2] was “Active” each time. For the same compound, the “growth inhibition (GI)” value with Streptomyces scabiei [6] was “inactive”.

For the compound `CCCCCCCCCCCCCCCOC(=O)[C@]12CC[C@@H](C)[C@H](C)[C@H]1C1=CC[C@@H]3[C@@]4(C)[C@@H](O)[C@H](O)[C@H](O)C(C)(C)[C@@H]4CC[C@@]3(C)[C@]1(C)CC2`, the “growth inhibition (GI)” value with Bacillus spizizenii [1] and with Staphylococcus aureus [2] was “Active” in each case.

Consider `CCCCCOC(=O)[C@]12CC[C@@H](C)[C@H](C)[C@H]1C1=CC[C@@H]3[C@@]4(C)[C@@H](O)[C@H](O)[C@H](O)C(C)(C)[C@@H]4CC[C@@]3(C)[C@]1(C)CC2`, for which the “growth inhibition (GI)” value in the experiment with Bacillus spizizenii [1] and in the experiment on Staphylococcus aureus [2] was “Active” throughout.

`C[C@H]1[C@H](C)CC[C@]2(C(=O)OCc3ccccc3Cl)CC[C@]3(C)C(=CC[C@@H]4[C@@]5(C)[C@@H](O)[C@H](O)[C@H](O)C(C)(C)[C@@H]5CC[C@]43C)[C@H]12`: the “growth inhibition (GI)” value in the experiment on Bacillus spizizenii [1] and with Staphylococcus aureus [2] was “Active” each time. The “growth inhibition (GI)” value with Streptomyces scabiei [6] is “inactive”.

With `CCCCOC(=O)[C@]12CC[C@@H](C)[C@H](C)[C@H]1C1=CC[C@@H]3[C@@]4(C)[C@@H](O)[C@H](O)[C@H](O)C(C)(C)[C@@H]4CC[C@@]3(C)[C@]1(C)CC2`, the inhibition of growth at 100 µM with Bacillus spizizenii [1] and in the experiment on Staphylococcus aureus [2] was more than 95% throughout. Besides, the MIC in the experiment with Bacillus spizizenii [3] was 64 µM (≈ 34.9 µg/mL); in the experiment with Streptomyces scabiei [4], not below 100 µM; with Staphylococcus aureus [5], 8 µM (≈ 4.36 µg/mL).

In the case of `C[C@H]1[C@H](C)CC[C@]2(C(=O)OCc3ccc([N+](=O)[O-])cc3)CC[C@]3(C)C(=CC[C@@H]4[C@@]5(C)[C@@H](O)[C@H](O)[C@H](O)C(C)(C)[C@@H]5CC[C@]43C)[C@H]12`, the “growth inhibition (GI)” value in the experiment on Bacillus spizizenii [1] and in the experiment on Staphylococcus aureus [2] was “Active” throughout. Moreover, the “growth inhibition (GI)” value in the experiment with Streptomyces scabiei [6] was “inactive”.

With `CCCCCOC(=O)[C@]12CCC(C)(C)C[C@H]1C1=CC[C@@H]3[C@@]4(C)[C@@H](O)[C@H](O)[C@H](O)C(C)(C)[C@@H]4CC[C@@]3(C)[C@]1(C)CC2`, the “growth inhibition (GI)” value in the experiment with Bacillus spizizenii [1] and with Staphylococcus aureus [2] was “Active” each time.

As to `CC1(C)CC[C@]2(C(=O)O)CC[C@]3(C)C(=CC[C@@H]4[C@@]5(C)C=CC(=O)C(C)(C)[C@@H]5CC[C@]43C)[C@@H]2C1`, the “growth inhibition (GI)” value in the experiment with Bacillus spizizenii [1], in the experiment on Streptomyces scabiei [6] and in the experiment with Staphylococcus aureus [2] was “Active” throughout.

Turning to `CCCCOC(=O)[C@]12CCC(C)(C)C[C@H]1C1=CC[C@@H]3[C@@]4(C)[C@@H](O)[C@H](O)[C@H](O)C(C)(C)[C@@H]4CC[C@@]3(C)[C@]1(C)CC2`, the inhibition of growth at 100 µM with Bacillus spizizenii [1] and in the experiment on Staphylococcus aureus [2] was more than 95% each time. The results for the MIC in the experiment with Bacillus spizizenii [3], in the experiment with Streptomyces scabiei [4] and with Staphylococcus aureus [5] were not below 100 µM, not below 100 µM and 8 µM (≈ 4.36 µg/mL), respectively.

Regarding `CC1(C)CC[C@]2(C(=O)O)CC[C@]3(C)C(=CC[C@@H]4[C@@]5(C)[C@@H](O)[C@H](O)[C@H](O)C(C)(C)[C@@H]5CC[C@]43C)[C@@H]2C1`, the “growth inhibition (GI)” value in the experiment with Staphylococcus aureus [2] is “Active”.

On to `C[C@H]1[C@H](C)CC[C@]2(C(=O)OCc3ccccc3[N+](=O)[O-])CC[C@]3(C)C(=CC[C@@H]4[C@@]5(C)[C@@H](O)[C@H](O)[C@H](O)C(C)(C)[C@@H]5CC[C@]43C)[C@H]12`, for which the “growth inhibition (GI)” value in the experiment with Bacillus spizizenii [1] and with Staphylococcus aureus [2] was “Active” in each case. In the experiment on Streptomyces scabiei [6], the “growth inhibition (GI)” value is “inactive”.

For the compound `CC1(C)S[C@@H]2[C@H](NC(=O)[C@H](N)c3ccccc3)C(=O)N2[C@H]1C(=O)O` [AMPICILLIN], the values for the MIC in the experiment on Bacillus spizizenii [3], with Streptomyces scabiei [4] and in the experiment with Staphylococcus aureus [5] were not below 100 µM, not below 100 µM and 4 µM (≈ 1.4 µg/mL), respectively.

For `C[C@H]1[C@H](C)CC[C@]2(C(=O)OCc3ccccc3)CC[C@]3(C)C(=CC[C@@H]4[C@@]5(C)[C@H]6O[C@H]6C(=O)C(C)(C)[C@@H]5CC[C@]43C)[C@H]12`, the “growth inhibition (GI)” value with Bacillus spizizenii [1] and with Streptomyces scabiei [6] was “Active” each time.

For the compound `C[C@H]1[C@H](C)CC[C@]2(C(=O)OCc3ccccc3)CC[C@]3(C)C(=CC[C@@H]4[C@@]5(C)[C@@H](O)[C@H](O)[C@H](O)C(C)(C)[C@@H]5CC[C@]43C)[C@H]12`, in the experiment with Staphylococcus aureus [2], the “growth inhibition (GI)” value was “Active”.

As for `C[C@H]1[C@H](C)CC[C@]2(C(=O)O)CC[C@]3(C)C(=CC[C@@H]4[C@@]5(C)[C@@H](O)[C@H](O)[C@H](O)C(C)(C)[C@@H]5CC[C@]43C)[C@H]12`, the “growth inhibition (GI)” value in the experiment with Bacillus spizizenii [1], in the experiment with Streptomyces scabiei [6] and with Staphylococcus aureus [2] was “Active” each time.

Source of the values: ChEMBL document CHEMBL3414456, “Pentacyclic triterpene derivatives possessing polyhydroxyl ring A inhibit gram-positive bacteria growth by regulating metabolism and virulence genes expression” (2015).
